Assay results: patent EP4616854A1, “TREATMENT OF MUSCLE SARCOPENIA” (Molius Saglik Teknolojileri Anonim Sirketi, priority 2024, dated 2025)
“Also recorded” adds a separate entry of the source. Where two headings read alike, the source gives them in different places. Where a SMILES comes first, the peptide text is derived from it. The star is where a group is joined. Cbz = O=C(OCc1ccccc1)*

Key:
[1] = system: C2C12 myoblasts; assay: Differentiation of C2C12 myoblasts to myotubes under drug treatment, without ceramide; format: cell-based, mouse; conditions: for ability to facilitate myotube differentiation without the presence of ceramide: C2C12 cells not treated with C2-ceramide, Fig. 15
Method: The C2C12 cells (C2C12 mouse C3H muscle myoblast purchased from Sigma) were maintained in modified Eagle's medium (DMEM) with 10 % fetal bovine serum (FBS) and 1 % penicillin/streptomycin (P/S) solution in a humidified incubator with 5 % CO2 at 37 °C. […] […] Then, the medium was changed twice, at two-day intervals, with a differentiation medium (DMEM with 2% FBS and 1% P/S) with drug candidates to differentiate myoblasts into myotubes. […] Cell viability was measured spectrophotometrically by Cell Counting kit-8. The expression level of target proteins (ANXA2, CLMP, Cyc1, and SDHB), myogenic markers (MyoG and MyH3) and α-Tubulin (internal control) were detected using Western blots. All experiments were performed with 3 replicates.

[2] = system: C2-ceramide treated C2C12 cell line; assay: In vitro sarcopenia model (Example 1): myotube phenotype and MyH3 immunofluorescence; format: cell-based, mouse; conditions: for MyH3 intensity compared to the control group: mean brightness of MyH3 staining, Fig. 5B
Method: (§1) The C2C12 cells (C2C12 mouse C3H muscle myoblast purchased from Sigma) were maintained in modified Eagle's medium (DMEM) with 10 % fetal bovine serum (FBS) and 1 % penicillin/streptomycin (P/S) solution in a humidified incubator with 5 % CO2 at 37 °C. 40 µM C2-ceramide was used for developing an in vitro model of sarcopenia in the C2C12 cell line, i.e., in vitro sarcopenia model. One day after 300×10^3 cells were seeded per well in a 6-well plate, N-acetyl-D-sphingosine (C2-ceramide) and the drug candidates (dissolved in DMSO) were administered in the maintenance condition (DMEM with 10 % FBS and 1 % P/S) for two days. Then, the medium was changed twice, at two-day intervals, with a differentiation medium (DMEM with 2% FBS and 1% P/S) with drug candidates to differentiate myoblasts into myotubes. Furthermore, siRNAs for Anxa2 and Clmp and overexpression plasmids for Cyc1 and Sdhb were transfected into the cells to examine the effect of the target proteins on the in vitro sarcopenia model. Cell viability was measured spectrophotometrically by Cell Counting kit-8. The expression level of target proteins (ANXA2, CLMP, Cyc1, and SDHB), myogenic markers (MyoG and MyH3) and α-Tubulin (internal control) were detected using Western blots. All experiments were performed with 3 replicates.
The cells were, once again, washed 3 times in PBS and then permeabilized in 0.1 % TritonX-100 for 15 min at room temperature. The cells were then incubated for 1 h in 2 % bovine serum albumin (BSA) solution followed by overnight incubation in anti-Myosin/MyH3 diluted in 0.1 % BSA at 4 °C. Primary antibody solution was washed away with PBS, then incubated in fluorescent dye-labelled secondary antibody diluted in 0.1 % BSA for 45 min at room temperature protected from light. Finally, the samples were washed 3 times with 1xPBS-T and mounted with DAPI mount putted cover glass on the cells.
The cell brightness was measured by ImageJ software (NIH). For each experiment condition, three different areas were photographed with same area size (5038848 by ImageJ), the mean brightness of each image was obtained for statistical analysis. The t test was used to check the statistical differences between any two experiment conditions.

[3] = system: C2-ceramide treated C2C12 cell line; assay: In vitro sarcopenia model (Example 1): Western blot of target proteins and myogenic markers; format: cell-based, mouse
Method: as §1
The cells were washed with PBS and lysed with CelLytic M (C2978, Sigma-Aldrich) lysis buffer containing protease inhibitors. The cell lysates were centrifuged at 12 000 rpm for 5 min and supernatants were collected. A protein assay solution (Bio-Rad) was used for the determination of protein concentration. The absorbance of the proteins was measured spectrophotometrically at 595 nm by microplate reader (Hidex Sense Beta Plus). Protein electrophoresis was performed using Mini-PROTEAN® TGXTM Precast Gels (Bio-Rad) and the separated proteins were transferred to a Trans-Blot Turbo Mini 0.2 um PVDF Transfer Packs membrane (Bio-Rad) by using Trans-Blot® TurboTM Transfer System (Bio-Rad). The membrane was blocked with 5 % skim milk for 30 min at 4 °C with gentle rocking. It was immunoblotted with primary antibodies against MyH3, MyoG, ANXA2, CLMP, Cyc1, and SDHB, as well as α-Tubulin, as an internal control, overnight at 4 °C with gentle rocking. Goat anti-Rabbit HRP or goat anti-mouse IgG-HRP was used as secondary antibody. Reaction with secondary antibody proceeded for 30 min at 4 °C with gentle rocking.

[4] = Cell viability assay (MTT); conditions: mouse, c2c12 cells
Method: The effects of the drugs on the C2C12 cell viability were tested by MTT (Thiazolyl Blue Tetrazolium Bromide) assay. 1×10^4 cells were seeded per well in a 96-well plate in 100 µL growth media. After one day of cell seeding, the cells were treated with different concentrations of the drugs dissolved in 0.1 % DMSO and 100 µL of the media for one day. After the treatment period, 5 mg/ml MTT (M2128, Sigma-Aldrich) solution in PBS (10 µL) was added to each well. After one hour, the MTT solution and all media were removed from the wells. 100 µl of DMSO was added and mixed to dissolve the formazan crystals. Cell viability was analysed by measuring the absorbance of the dissolved formazan at a wavelength of 570 nm with a microplate reader (Hidex Sense Beta Plus).

[5] = system: C2-ceramide treated C2C12 cell line; assay: In vitro sarcopenia model (Example 2): Western blot of target genes and myogenic markers; format: cell-based, mouse
Source text: C2-ceramide ([…], Sigma Aldrich) was used for inducing sarcopenia in the C2C12 cell line. […] Then, the medium was changed twice, at two-day intervals, with a differentiation medium (DMEM with 2% FBS and 1% P/S) to differentiate myoblasts into myotubes. Because C2-ceramide may affect mitochondrial activity in muscle cells, another cell model was created without introducing ceramide. After completion of myotube differentiation, cells were harvested for western blot analysis. […] The cell lysates were centrifuged at 12.000 rpm for 10 min and supernatants were collected. Protein Assay Dye Reagent (5000006, Bio-Rad) was used for the determination of protein concentration. The absorbance of the proteins was measured spectrophotometrically at 595 nm by a microplate reader (Hidex Sense Beta Plus). […] The membrane was blocked with 5 % skim milk for 30 min at 4 °C with gentle rocking. After blocking, the membrane was treated with primary antibodies: anti-AGL (ab133720, Abcam, UK) anti-PDHX (HPA038484, Human Protein Atlas, Sweden), anti-Myogenin (ab124800, Abcam), anti-Myosin/MyH3 (ab124205, Abcam), anti-Beta actin (ab8227, Abam) as a loading control overnight at 4 °C on a rocking platform. After the treatment of primary antibodies, the membrane was washed three times with TBS-T buffer ([…]-7500-100, Medicago). Then, Goat anti-Rabbit IgG-HRP (ab205718, Abcam) was treated as the secondary antibody for 30 min at 4 °C with gentle rocking.

[6] = system: ubiquitinated proteins; conditions: mice, Sakai et al. [39]; cited from earlier work
[7] = selected non-toxic concentration of drug candidate, Fig. 11
[8] = 40 µM ceramide plus drug candidate at selected concentration
[9] = 5 µM, in vitro sarcopenia model
[10] = drug plus ceramide (sarcopenic cells), concentration not given
[11] = 2.5 µM, in vitro sarcopenia model
[12] = 20 µM, in vitro sarcopenia model
[13] = 40 µM ceramide alone versus control, 4 days of differentiation

## CCCCCCCCCC(=O)NC(CN1CCOCC1)C(O)c1ccccc1 (racemic) [DL-PDMP]
[1]; [7]
  differentiation of myoblasts to myotubes: highly differentiated
[2]; [8]
  effect on myotubes (phenotypic change): Only treatment with withaferin-A improved the myotubes

## OCCCNc1cc(-c2ccnc(Nc3cccc(Cl)c3)n2)ccn1 [CGP-60474]
[1]; [7]
  differentiation of myoblasts to myotubes: highly differentiated
[2]; [8]
  effect on myotubes (phenotypic change): Only treatment with withaferin-A improved the myotubes

## Nc1[nH]nc2nnc(-c3c(-c4ccccc4)nn4ccccc34)cc12 [FR-180204]
[1]
  ability to facilitate myotube differentiation without the presence of ceramide: exhibited the ability to facilitate myotube differentiation
  ability to improve the myotube fusion in healthy muscle myoblasts: ability to improve the myotube fusion
[2]; [8]
  effect on myotubes (phenotypic change): promising effect in enhancing myotube cells
[3]; [9]
  Cyc1 expression: significantly increased
  MyH3 expression: significantly increased
  MyoG expression: significantly increased
[3]; [10]
  expression level of CYC1: significantly increase
  expression level of MyH3: significantly increase
  expression level of MyoG: significantly increase

## CC(C)C[C@@H](C=O)NC(=O)[C@H](CC(C)C)NC(=O)[C@H](CC(C)C)NC(=O)OCc1ccccc1 [MG-132] (Cbz-Leu-Leu-Leu-aldehyde)
[4]
  MNTC at 24 h: 25 nM
[5]; sarcopenic cells
  expression levels of MyH3: significantly increase
  expression levels of MyoG: significantly increase
[5]; sarcopenic cells, compared to the in vitro sarcopenia model
  expression of myogenic markers: increased
[5]; selected non-toxic optimal dose, in vitro sarcopenia model
  expression of AGL: enhanced; also recorded: significantly increase
[6]
  expression levels of ubiquitinated proteins in atrophic muscle cells: downregulation

## Cc1ccc(CNc2ncnc3ccc(-c4ccc(CO)o4)cc23)o1 [ML-167]
[1]
  ability to facilitate myotube differentiation without the presence of ceramide: exhibited the ability to facilitate myotube differentiation
  ability to improve the myotube fusion in healthy muscle myoblasts: ability to improve the myotube fusion
[2]; [8]
  effect on myotubes (phenotypic change): promising effect in enhancing myotube cells
[3]; [11]
  Cyc1 expression: notable upregulation
  MyH3 expression: notable upregulation
  MyoG expression: notable upregulation
[3]; [9]
  Cyc1 expression: notable upregulation
  MyH3 expression: notable upregulation
  MyoG expression: notable upregulation
[3]; [10]
  expression level of CYC1: significantly increase
  expression level of MyH3: significantly increase
  expression level of MyoG: significantly increase

## O=C1c2c(O)ccc(O)c2C(=O)c2c(NCCNCCO)ccc(NCCNCCO)c21 [Mitoxantrone]
[1]; [7]
  differentiation of myoblasts to myotubes: less differentiated

## Cc1ccc([N+](=O)[O-])cc1S(=O)(=O)N(C)/N=C/c1cnc2ccc(Br)cn12 [PIK-75]
[1]; [7]
  differentiation of myoblasts to myotubes: highly differentiated
[2]; [8]
  effect on myotubes (phenotypic change): Only treatment with withaferin-A improved the myotubes

## CC1=C(CO)C(=O)OC(C(C)C2CCC3C4CC5OC56C(O)C=CC(=O)C6(C)C4CCC23C)C1 (centres unmarked) [Withaferin-A, withaferin-A]
[4]
  MNTC at 24 h: 50 nM
[1]; [7]
  differentiation of myoblasts to myotubes: highly differentiated
[2]; [8]
  effect on myotubes (phenotypic change): improved the myotubes similarly to the control sample
[2]
  MyH3 intensity compared to the control group: no statistical difference
[3]; [10]
  expression level of CYC1: activating effect
  expression level of MyH3: increase; also recorded: expressed as much as control samples
  expression level of MyoG: increase
[3]; drug plus ceramide, concentration not given
  expression level of ANXA2: inhibitory effect; also recorded: decreased

## COC[C@H]1OC(=O)c2coc3c2[C@@]1(C)C1=C(C3=O)[C@@H]2CCC(=O)[C@@]2(C)C[C@H]1OC(C)=O [Wortmannin]
[1]
  differentiation of myoblasts to myotubes: moderately differentiated
[2]
  effect on myotubes (phenotypic change): Only treatment with withaferin-A improved the myotubes

## CN(C)CCOC(c1ccc(Cl)cc1)c1ccccn1 (centres unmarked) [carbinoxamine]
[2]; [8]
  effect on myotubes (phenotypic change): promising effect in enhancing myotube cells
[3]; [12]
  CYC1 expression: large improvement
  MyH3 expression: increase
  MyoG expression: increase
[3]; [10]
  expression level of CYC1: increase
  expression level of MyH3: increase
  expression level of MyoG: increase

## CCCCCCCCCCCCC/C=C/[C@@H](O)[C@H](CO)NC(C)=O [ceramide, N-acetyl-D-sphingosine]
[2]; 40 µM ceramide alone, after 4 days of differentiation
  myotube formation: less myotubes were formed
[2]
  MyH3 intensity compared to the control group: significantly deceased; also recorded: significantly decreased
[3]; [13]
  expression level of MyH3: decreased
  expression level of MyoG: decreased
[3]; ceramide alone versus control
  expression level of ANXA2: increased

## CC(C)(Oc1ccc(Cl)cc1)C(=O)O [clofibric-acid, clofibric acid]
[4]
  MNTC at 24 h: 5000 nM

## CC(=O)c1c(C)c2cnc(Nc3ccc(N4CCNCC4)cn3)nc2n(C2CCCC2)c1=O [palbociclib]
[4]
  MNTC at 24 h: 5000 nM

## Cc1c(C)c2c(c(C)c1O)CCC(C)(COc1ccc(CC3SC(=O)NC3=O)cc1)O2 (centres unmarked) [troglitazone]
[4]
  MNTC at 24 h: 500 nM
